# Data: ChEMBL document CHEMBL1201862, “PubChem BioAssay data set” (2004)
#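 Five compound concentrations were applied to cells in 96-well plates for 48 hours; endpoints were derived by simple linear interpolation of the resulting dose-response curve. GI50 is the concentration that inhibits growth by half.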 Active and inactive are the calls of the source. No stated cut-off is given here; in the data, active = GI50 up to about 1.1 µM and inactive = higher.
# Assays:
# Assay in all cases: DTP human tumour cell line panel, 48 h
# [1] = system: M14
# [2] = system: KM12
# [3] = system: OVCAR-3
# [4] = system: SF-268
# [5] = system: HT-29
# [6] = system: COLO 205
# [7] = system: SK-MEL-2
# [8] = system: OVCAR-4
# [9] = system: SN12C
# [10] = system: NCI-H460
# [11] = system: UACC-62
# [12] = system: SK-MEL-28
# [13] = system: IGROV-1
# [14] = system: HCT-15
# [15] = system: CCRF-CEM
# [16] = system: ACHN
# [17] = system: SW-620
# [18] = system: SNB-75
# [19] = system: K562
# [20] = system: RPMI-8226
Structure (SMILES),GI50 [1],GI50 [2],GI50 [3],GI50 [4],GI50 [5],GI50 [6],GI50 [7],GI50 [8],GI50 [9],GI50 [10],GI50 [11],GI50 [12],GI50 [13],GI50 [14] [µM],GI50 [15],GI50 [16],GI50 [17],GI50 [18],GI50 [19],GI50 [20]
Nc1nc(SCCC/C=C/I)nc2c1ncn2C1OC(COP(=O)(O)O)C(O)C1O (centres undefined),> 100 µM (inactive),> 100 µM (inactive),> 100 µM (inactive),> 100 µM (inactive),> 100 µM (inactive),> 100 µM (inactive),> 100 µM (inactive),> 100 µM (inactive),> 100 µM (inactive),> 100 µM (inactive),> 100 µM (inactive),> 100 µM (inactive),> 100 µM (inactive),> 100,> 100 µM (inactive),> 100 µM (inactive),> 100 µM (inactive),> 100 µM (inactive),> 100 µM (inactive),
C[N+]1([O-])[C@H]2CC(OC(=O)[C@H](CO)c3ccccc3)C[C@H]1[C@H]1O[C@H]12 (some centres undefined),> 100 µM (inactive),> 100 µM (inactive),> 100 µM (inactive),,> 100 µM (inactive),> 100 µM (inactive),> 100 µM (inactive),> 100 µM (inactive),> 100 µM (inactive),,> 100 µM (inactive),> 100 µM (inactive),> 100 µM (inactive),> 100,21.2 µM (inactive),> 100 µM (inactive),> 100 µM (inactive),> 100 µM (inactive),> 100 µM (inactive),> 100 µM (inactive)
COC(=O)/C=C\n1ncc(=O)[nH]c1=O,> 100 µM (inactive),> 10 µM (inactive),> 100 µM (inactive),> 100 µM (inactive),> 100 µM (inactive),> 100 µM (inactive),> 100 µM (inactive),> 100 µM (inactive),> 100 µM (inactive),> 100 µM (inactive),,> 100 µM (inactive),> 100 µM (inactive),> 100,,> 100 µM (inactive),> 100 µM (inactive),> 100 µM (inactive),> 100 µM (inactive),> 100 µM (inactive)
C=C(C)C1Cc2c(c3ccccc3n(C)c2=O)O1 (centres undefined),> 100 µM (inactive),,> 100 µM (inactive),> 100 µM (inactive),> 100 µM (inactive),> 100 µM (inactive),> 100 µM (inactive),,> 100 µM (inactive),> 100 µM (inactive),> 100 µM (inactive),> 100 µM (inactive),> 100 µM (inactive),> 100,> 100 µM (inactive),> 100 µM (inactive),> 100 µM (inactive),> 100 µM (inactive),> 100 µM (inactive),> 100 µM (inactive)
CC(=O)Nc1ccc(Sc2nnc(NC(C)=O)s2)cc1,> 100 µM (inactive),> 100 µM (inactive),,> 100 µM (inactive),,> 100 µM (inactive),,> 100 µM (inactive),> 100 µM (inactive),> 100 µM (inactive),,> 100 µM (inactive),> 100 µM (inactive),> 100,> 100 µM (inactive),> 100 µM (inactive),> 100 µM (inactive),> 100 µM (inactive),> 100 µM (inactive),> 100 µM (inactive)
N#CCCN(CCC#N)c1ccc(/C=C(/NC(=O)Nc2ccccc2Cl)NC(=O)c2cc([N+](=O)[O-])ccc2Cl)cc1,> 100 µM (inactive),> 100 µM (inactive),> 100 µM (inactive),> 100 µM (inactive),,> 100 µM (inactive),> 100 µM (inactive),> 100 µM (inactive),> 100 µM (inactive),,57.8 µM (inactive),> 100 µM (inactive),> 100 µM (inactive),> 100,17.3 µM (inactive),42.2 µM (inactive),> 100 µM (inactive),,64.6 µM (inactive),52.4 µM (inactive)
CN(C)CCCNC(=O)N/N=C\c1cccc2ccccc12,> 10 µM (inactive),> 10 µM (inactive),,> 10 µM (inactive),> 10 µM (inactive),> 10 µM (inactive),,> 10 µM (inactive),> 10 µM (inactive),> 10 µM (inactive),> 10 µM (inactive),> 10 µM (inactive),> 10 µM (inactive),> 10,> 10 µM (inactive),> 10 µM (inactive),> 10 µM (inactive),> 10 µM (inactive),> 10 µM (inactive),> 10 µM (inactive)
CCOC(=O)COc1ccc(OC)c2c1C(=O)CCC2,> 100 µM (inactive),,> 100 µM (inactive),,> 100 µM (inactive),> 100 µM (inactive),,> 100 µM (inactive),> 100 µM (inactive),> 100 µM (inactive),> 100 µM (inactive),> 100 µM (inactive),> 100 µM (inactive),> 100,> 100 µM (inactive),> 100 µM (inactive),> 100 µM (inactive),> 100 µM (inactive),> 100 µM (inactive),> 100 µM (inactive)
CCN(CC)CCC(=O)NC1c2ccccc2Oc2c(C)cccc21 (centres undefined),> 100 µM (inactive),,,> 100 µM (inactive),> 100 µM (inactive),> 100 µM (inactive),,> 100 µM (inactive),> 100 µM (inactive),> 100 µM (inactive),> 100 µM (inactive),> 100 µM (inactive),> 100 µM (inactive),> 100,> 100 µM (inactive),> 100 µM (inactive),> 100 µM (inactive),> 100 µM (inactive),> 100 µM (inactive),> 100 µM (inactive)
CC#CC#C/C(=C/C=CC(=O)OC)SC,> 100 µM (inactive),> 100 µM (inactive),,> 100 µM (inactive),> 100 µM (inactive),> 100 µM (inactive),> 100 µM (inactive),> 100 µM (inactive),> 100 µM (inactive),> 100 µM (inactive),> 100 µM (inactive),> 100 µM (inactive),> 100 µM (inactive),> 100,> 10 µM (inactive),,> 100 µM (inactive),39.4 µM (inactive),> 100 µM (inactive),
COc1ccc2c(c1)[n+]([O-])c(C(=O)C/C(=N/NC(=O)c1ccccc1O)C(=O)Nc1ccc(Cl)c(C(F)(F)F)c1)c(C)[n+]2[O-],51.4 µM (inactive),89.1 µM (inactive),28.9 µM (inactive),54.8 µM (inactive),> 100 µM (inactive),71 µM (inactive),> 100 µM (inactive),87.9 µM (inactive),47.2 µM (inactive),46.5 µM (inactive),> 100 µM (inactive),> 100 µM (inactive),44 µM (inactive),43.7,36.4 µM (inactive),68.9 µM (inactive),62.1 µM (inactive),66.5 µM (inactive),64.4 µM (inactive),
